# Measurements published in ChEMBL document CHEMBL4665675 (J Med Chem, 2020).
# System: CCRF-CEM
# Assay: Cytotoxicity against human CEM cells incubated for 48 to 72 hrs by Cell Titer 96 aqueous one solution cell proliferation assay
# Type: functional, cell-based
# Conditions: not given
row,Compound,IC50 [nM]
1,COc1cc2c(c(O)c1OC)-c1ccc(OC)c(=O)cc1[C@@H](NC(C)=O)CC2,15
2,CCC(=O)Oc1c(OC)c(OC)cc2c1-c1ccc(OC)c(=O)cc1[C@@H](NC(C)=O)CC2,12
3,CCCOc1c(OC)c(OC)cc2c1-c1ccc(OC)c(=O)cc1[C@@H](NC(C)=O)CC2,12
4,COc1cc2c(c(OC(=O)C(C)C)c1OC)-c1ccc(OC)c(=O)cc1[C@@H](NC(C)=O)CC2,12
5,CCOc1c(OC)c(OC)cc2c1-c1ccc(OC)c(=O)cc1[C@@H](NC(C)=O)CC2,12
6,C=COc1c(OC)c(OC)cc2c1-c1ccc(OC)c(=O)cc1[C@@H](NC(C)=O)CC2,12
7,COc1cc2c(c(OCc3cccc(Cl)c3)c1OC)-c1ccc(OC)c(=O)cc1[C@@H](NC(C)=O)CC2,12
8,COc1cc2c(c(OCc3ccccc3Cl)c1OC)-c1ccc(OC)c(=O)cc1[C@@H](NC(C)=O)CC2,12
9,COc1cc2c(c(OCc3ccc(Cl)cc3)c1OC)-c1ccc(OC)c(=O)cc1[C@@H](NC(C)=O)CC2,12
10,COCCOc1c(OC)c(OC)cc2c1-c1ccc(OC)c(=O)cc1[C@@H](NC(C)=O)CC2,12

# System: A549
# Assay: Antiproliferative activity against human A549 cells incubated for 72 hrs by sulforhodamine B assay
# Type: functional, cell-based
# Conditions: A549, 72 h
row,Compound,IC50 [nM]
1,COc1c(Cl)c2c(c(OC)c1OC)-c1ccc(SC)c(=O)cc1[C@@H](NC(=O)OCC(F)(F)F)CC2,7
2,COc1c(Cl)c2c(c(OC)c1OC)-c1ccc(SC)c(=O)cc1[C@@H](NC(=O)OC(C)C)CC2,20
3,COCC(=O)N[C@H]1CCc2c(Cl)c(OC)c(OC)c(OC)c2-c2ccc(SC)c(=O)cc21,5
4,COc1c(Cl)c2c(c(OC)c1OC)-c1ccc(SC)c(=O)cc1[C@@H](NC(=O)OCCOCCO)CC2,93
5,COc1cccc2c1C(=O)c1c(O)c3c(c(O)c1C2=O)C[C@@](O)(C(=O)CO)C[C@@H]3O[C@H]1C[C@H](N)[C@H](O)[C@H](C)O1 [DOXORUBICIN],92
6,COC(=O)N[C@H]1CCc2c(Cl)c(OC)c(OC)c(OC)c2-c2ccc(SC)c(=O)cc21,11
7,COc1c(I)c2c(c(OC)c1OC)-c1ccc(SC)c(=O)cc1[C@@H](NC(C)=O)CC2,11
8,COc1c(Cl)c2c(c(OC)c1OC)-c1ccc(SC)c(=O)cc1[C@@H](NC(=O)c1ccccc1)CC2,7
9,COc1c(Cl)c2c(c(OC)c1OC)-c1ccc(SC)c(=O)cc1[C@@H](NC(=O)CCCCl)CC2,10
10,CCCOC(=O)N[C@H]1CCc2c(Cl)c(OC)c(OC)c(OC)c2-c2ccc(SC)c(=O)cc21,8
11,COc1c(Cl)c2c(c(OC)c1OC)-c1ccc(SC)c(=O)cc1[C@@H](NC(C)=O)CC2,22
12,COc1c(Cl)c2c(c(OC)c1OC)-c1ccc(SC)c(=O)cc1[C@@H](N)CC2,98
13,COc1c(F)c2c(c(OC)c1OC)-c1ccc(SC)c(=O)cc1[C@@H](NC(C)=O)CC2,11
14,CCN(CC)C(=O)N[C@H]1CCc2c(Cl)c(OC)c(OC)c(OC)c2-c2ccc(SC)c(=O)cc21,27

# System: MCF7
# Assay: Antiproliferative activity against human MCF7 cells incubated for 72 hrs by sulforhodamine B assay
# Type: functional, cell-based
# Conditions: MCF7, 72 h
row,Compound,IC50 [nM]
1,COc1c(Cl)c2c(c(OC)c1OC)-c1ccc(SC)c(=O)cc1[C@@H](NC(=O)OCC(F)(F)F)CC2,7
2,COc1c(Cl)c2c(c(OC)c1OC)-c1ccc(SC)c(=O)cc1[C@@H](NC(=O)OC(C)C)CC2,20
3,COCC(=O)N[C@H]1CCc2c(Cl)c(OC)c(OC)c(OC)c2-c2ccc(SC)c(=O)cc21,5
4,COc1c(Cl)c2c(c(OC)c1OC)-c1ccc(SC)c(=O)cc1[C@@H](NC(=O)OCCOCCO)CC2,93
5,COC(=O)N[C@H]1CCc2c(Cl)c(OC)c(OC)c(OC)c2-c2ccc(SC)c(=O)cc21,11
6,COc1c(I)c2c(c(OC)c1OC)-c1ccc(SC)c(=O)cc1[C@@H](NC(C)=O)CC2,17
7,COc1c(Cl)c2c(c(OC)c1OC)-c1ccc(SC)c(=O)cc1[C@@H](NC(=O)c1ccccc1)CC2,7
8,COc1c(Cl)c2c(c(OC)c1OC)-c1ccc(SC)c(=O)cc1[C@@H](NC(=O)CCCCl)CC2,10
9,CCCOC(=O)N[C@H]1CCc2c(Cl)c(OC)c(OC)c(OC)c2-c2ccc(SC)c(=O)cc21,8
10,COc1c(Cl)c2c(c(OC)c1OC)-c1ccc(SC)c(=O)cc1[C@@H](NC(C)=O)CC2,22
11,COc1c(Cl)c2c(c(OC)c1OC)-c1ccc(SC)c(=O)cc1[C@@H](N)CC2,98
12,COc1c(F)c2c(c(OC)c1OC)-c1ccc(SC)c(=O)cc1[C@@H](NC(C)=O)CC2,10
13,CCN(CC)C(=O)N[C@H]1CCc2c(Cl)c(OC)c(OC)c(OC)c2-c2ccc(SC)c(=O)cc21,27

# System: LoVo
# Assay: Antiproliferative activity against human LoVo cells incubated for 72 hrs by sulforhodamine B assay
# Type: functional, cell-based
# Conditions: not given
row,Compound,IC50 [nM]
1,COc1c(Cl)c2c(c(OC)c1OC)-c1ccc(SC)c(=O)cc1[C@@H](NC(=O)OCC(F)(F)F)CC2,7
2,COc1c(Cl)c2c(c(OC)c1OC)-c1ccc(SC)c(=O)cc1[C@@H](NC(=O)OC(C)C)CC2,20
3,COCC(=O)N[C@H]1CCc2c(Cl)c(OC)c(OC)c(OC)c2-c2ccc(SC)c(=O)cc21,5
4,COc1c(Cl)c2c(c(OC)c1OC)-c1ccc(SC)c(=O)cc1[C@@H](NC(=O)OCCOCCO)CC2,93
5,COC(=O)N[C@H]1CCc2c(Cl)c(OC)c(OC)c(OC)c2-c2ccc(SC)c(=O)cc21,11
6,COc1c(I)c2c(c(OC)c1OC)-c1ccc(SC)c(=O)cc1[C@@H](NC(C)=O)CC2,7
7,COc1c(Cl)c2c(c(OC)c1OC)-c1ccc(SC)c(=O)cc1[C@@H](NC(=O)c1ccccc1)CC2,7
8,COc1c(Cl)c2c(c(OC)c1OC)-c1ccc(SC)c(=O)cc1[C@@H](NC(=O)CCCCl)CC2,10
9,CCCOC(=O)N[C@H]1CCc2c(Cl)c(OC)c(OC)c(OC)c2-c2ccc(SC)c(=O)cc21,8
10,COc1c(Cl)c2c(c(OC)c1OC)-c1ccc(SC)c(=O)cc1[C@@H](NC(C)=O)CC2,22
11,COc1c(Cl)c2c(c(OC)c1OC)-c1ccc(SC)c(=O)cc1[C@@H](N)CC2,98
12,COc1c(F)c2c(c(OC)c1OC)-c1ccc(SC)c(=O)cc1[C@@H](NC(C)=O)CC2,21
13,CCN(CC)C(=O)N[C@H]1CCc2c(Cl)c(OC)c(OC)c(OC)c2-c2ccc(SC)c(=O)cc21,27

# System: not listed separately
# Assay: Antiproliferative activity against human LoVo/DX cells incubated for 72 hrs by sulforhodamine B assay
# Type: functional, cell-based
# Conditions: not given
row,Compound,IC50 [nM]
1,COc1c(Cl)c2c(c(OC)c1OC)-c1ccc(SC)c(=O)cc1[C@@H](NC(=O)OCC(F)(F)F)CC2,7
2,COc1c(Cl)c2c(c(OC)c1OC)-c1ccc(SC)c(=O)cc1[C@@H](NC(=O)OC(C)C)CC2,20
3,COCC(=O)N[C@H]1CCc2c(Cl)c(OC)c(OC)c(OC)c2-c2ccc(SC)c(=O)cc21,5
4,COc1c(Cl)c2c(c(OC)c1OC)-c1ccc(SC)c(=O)cc1[C@@H](NC(=O)OCCOCCO)CC2,93
5,COc1cccc2c1C(=O)c1c(O)c3c(c(O)c1C2=O)C[C@@](O)(C(=O)CO)C[C@@H]3O[C@H]1C[C@H](N)[C@H](O)[C@H](C)O1 [DOXORUBICIN],92
6,COC(=O)N[C@H]1CCc2c(Cl)c(OC)c(OC)c(OC)c2-c2ccc(SC)c(=O)cc21,11
7,COc1c(I)c2c(c(OC)c1OC)-c1ccc(SC)c(=O)cc1[C@@H](NC(C)=O)CC2,642
8,COc1c(Cl)c2c(c(OC)c1OC)-c1ccc(SC)c(=O)cc1[C@@H](NC(=O)c1ccccc1)CC2,7
9,COc1c(Cl)c2c(c(OC)c1OC)-c1ccc(SC)c(=O)cc1[C@@H](NC(=O)CCCCl)CC2,10
10,CCCOC(=O)N[C@H]1CCc2c(Cl)c(OC)c(OC)c(OC)c2-c2ccc(SC)c(=O)cc21,8
11,COc1c(Cl)c2c(c(OC)c1OC)-c1ccc(SC)c(=O)cc1[C@@H](NC(C)=O)CC2,111
12,COc1c(Cl)c2c(c(OC)c1OC)-c1ccc(SC)c(=O)cc1[C@@H](N)CC2,98
13,COc1c(F)c2c(c(OC)c1OC)-c1ccc(SC)c(=O)cc1[C@@H](NC(C)=O)CC2,398
14,CCN(CC)C(=O)N[C@H]1CCc2c(Cl)c(OC)c(OC)c(OC)c2-c2ccc(SC)c(=O)cc21,27

# System: BALB/3T3
# Assay: Cytotoxicity against mouse BALB/3T3 cells incubated for 72 hrs by sulforhodamine B assay
# Type: cell-based
# Conditions: BALB/3T3, 72 h
row,Compound,IC50 [nM]
1,COc1c(Cl)c2c(c(OC)c1OC)-c1ccc(SC)c(=O)cc1[C@@H](NC(=O)OCC(F)(F)F)CC2,7
2,COc1c(Cl)c2c(c(OC)c1OC)-c1ccc(SC)c(=O)cc1[C@@H](NC(=O)OC(C)C)CC2,20
3,COCC(=O)N[C@H]1CCc2c(Cl)c(OC)c(OC)c(OC)c2-c2ccc(SC)c(=O)cc21,5
4,COc1c(Cl)c2c(c(OC)c1OC)-c1ccc(SC)c(=O)cc1[C@@H](NC(=O)OCCOCCO)CC2,93
5,COc1cccc2c1C(=O)c1c(O)c3c(c(O)c1C2=O)C[C@@](O)(C(=O)CO)C[C@@H]3O[C@H]1C[C@H](N)[C@H](O)[C@H](C)O1 [DOXORUBICIN],92
6,COC(=O)N[C@H]1CCc2c(Cl)c(OC)c(OC)c(OC)c2-c2ccc(SC)c(=O)cc21,11
7,COc1c(I)c2c(c(OC)c1OC)-c1ccc(SC)c(=O)cc1[C@@H](NC(C)=O)CC2,115
8,COc1c(Cl)c2c(c(OC)c1OC)-c1ccc(SC)c(=O)cc1[C@@H](NC(=O)c1ccccc1)CC2,7
9,COc1c(Cl)c2c(c(OC)c1OC)-c1ccc(SC)c(=O)cc1[C@@H](NC(=O)CCCCl)CC2,10
10,CCCOC(=O)N[C@H]1CCc2c(Cl)c(OC)c(OC)c(OC)c2-c2ccc(SC)c(=O)cc21,8
11,COc1c(Cl)c2c(c(OC)c1OC)-c1ccc(SC)c(=O)cc1[C@@H](NC(C)=O)CC2,22
12,COc1c(Cl)c2c(c(OC)c1OC)-c1ccc(SC)c(=O)cc1[C@@H](N)CC2,98
13,COc1c(F)c2c(c(OC)c1OC)-c1ccc(SC)c(=O)cc1[C@@H](NC(C)=O)CC2,114
14,CCN(CC)C(=O)N[C@H]1CCc2c(Cl)c(OC)c(OC)c(OC)c2-c2ccc(SC)c(=O)cc21,27

# System: not listed separately
# Assay: Antiproliferative activity against human ALL5 cells incubated for 120 hrs by MTT assay
# Type: functional, cell-based
# Conditions: ALL5, 120 h
row,Compound,IC50 [nM]
1,COCC(=O)N[C@H]1CCc2c(Cl)c(OC)c(OC)c(OC)c2-c2ccc(SC)c(=O)cc21,5
2,COc1c(Cl)c2c(c(OC)c1OC)-c1ccc(SC)c(=O)cc1[C@@H](NC(=O)c1ccccc1)CC2,7
3,COc1c(Cl)c2c(c(OC)c1OC)-c1ccc(SC)c(=O)cc1[C@@H](NC(=O)CCCCl)CC2,10
4,CCN(CC)C(=O)N[C@H]1CCc2c(Cl)c(OC)c(OC)c(OC)c2-c2ccc(SC)c(=O)cc21,27
